molecular target: T1, full length active recombinant SYK enzyme (Homo sapiens, UniProt P43405); assay: Inhibition of Syk tyrosine phosphorylation activity (LANCE TR-FRET kinase assay); format: biochemical; settings: 1 nM SYK, 550 nM substrate, 100 μM ATP, 1 hour room temperature
T1 construct: full length active recombinant SYK enzyme (Millipore, Calif.); purchased Millipore

| IC50 [nM] | SMILES |
| --- | --- |
| 100 to 1000 | Cc1ccc(Nc2nc(NC[C@H](C)N)ncc2C(N)=O)cc1 [Example 207] |
| 10 to 100 | CCn1ccc2c(Nc3nc(Nc4ccc5c(c4)CC(=O)N5)ncc3C(N)=O)cccc21 [Example 113, 4-(1-ethyl-1H-indol-4-ylamino)-2-(2-oxoindolin-5-ylamino)pyrimidine-5-carboxamide] |
| 10 to 100 | Cc1cccc(Nc2nc(N[C@@H](CN)CC(F)F)ncc2C(N)=O)c1 [Example 89, (R)-4-(m-toluidino)-2-(1-amino-4,4-difluorobutan-2-ylamino)pyrimidine-5-carboxamide] |
| 100 to 1000 | Cc1cccc(Nc2nc(N[C@H]3CC[C@@H](N)C3)ncc2C(N)=O)c1 [Example 118, 4-(m-toluidino)-2-((1S,3R)-3-aminocyclopentylamino)pyrimidine-5-carboxamide] |
| 10 to 100 | Cc1cccc(Nc2nc(NCC(N)CC(F)F)ncc2C(N)=O)c1 (stereo not drawn) [Example 206] |
| 10 to 100 | CCCc1cc2c(Nc3nc(N[C@@H]4CCCC[C@@H]4N)ncc3C(N)=O)cccc2n1C [Example 102, 2-((1R,2S)-2-aminocyclohexylamino)-4-(1-methyl-2-propyl-1H-indol-4-ylamino)pyrimidine-5-carboxamide] |
| 10 to 100 | CCn1ccc2c(Nc3nc(N[C@@H]4CCCC(F)(F)[C@@H]4N)ncc3C(N)=O)cccc21 [Example 92, 2-((1R,2R)-2-amino-3,3-difluorocyclohexylamino)-4-(1-ethyl-1H-indol-4-ylamino)pyrimidine-5-carboxamide] |
| 100 to 1000 | NC(=O)c1cnc(N[C@@H]2CCOC[C@@H]2N)nc1Nc1ccccc1 [Example 52, 2-(((3R,4R)-3-aminotetrahydro-2H-pyran-4-yl)amino)-4-(phenylamino)pyrimidine-5-carboxamide] |
| 10 to 100 | NC(=O)c1cnc(N[C@@H]2CCCC(F)(F)[C@@H]2N)nc1Nc1ccc2ncsc2c1 [Example 29, 2-(((1R,2R)-2-amino-3,3-difluorocyclohexyl)amino)-4-(benzo[d]thiazol-6-ylamino)pyrimidine-5-carboxamide] |
| 10 to 100 | CC[C@@H](Nc1ncc(C(N)=O)c(Nc2cc(C)ns2)n1)C(N)=O [Example 65, (R)-2-((1-amino-1-oxobutan-2-yl)amino)-4-((3-methylisothiazol-5-yl)amino)pyrimidine-5-carboxamide] |
| 10 to 100 | NC(=O)c1cnc(N[C@H]2[C@@H](N)CCCC2(F)F)nc1Nc1cccc(-c2ncccn2)c1 [Example 35, 2-(((1S,6S)-6-amino-2,2-difluorocyclohexyl)amino)-4-((3-(pyrimidin-2-yl)phenyl)amino)pyrimidine-5-carboxamide] |
| 1 to 10 | NC(=O)c1cnc(N[C@H](C2CC2)C2(N)CC2)nc1Nc1csc2ncccc12 [Example 171, (R)-2-(1-(1-aminocyclopropyl)(cyclopropyl)methylamino)-4-(thieno[2,3-b]pyridine-3-ylamino)pyrimidine-5-carboxamide] |
| 1 to 10 | CC[C@@H](Nc1ncc(C(N)=O)c(Nc2cccc(-n3cccn3)c2)n1)C1(N)CC1 [Example 132, (R)-4-(3-(1H-pyrazol-1-yl)phenylamino)-2-(1-(1-aminocyclopropyl)propylamino)pyrimidine-5-carboxamide] |
| 100 to 1000 | Cc1cccc(Nc2nc(N[C@@H](c3ccccc3)C3(N)CC3)ncc2C(N)=O)c1 [Example 148, (5)-2-(1-(1-aminocyclopropyl)(phenyl)methylamino)-4-(m-tolylamino)pyrimidine-5-carboxamide] |
| 1 to 10 | NC(=O)c1cnc(N[C@H](C2CC2)C2(N)CC2)nc1Nc1cccc(-c2ncccn2)c1 [Example 135, (R)-2-(1-(1-aminocyclopropyl)(cyclopropyl)methylamino)-4-(3-(pyrimidin-2-yl)phenylamino)pyrimidine-5-carboxamide] |
| 100 to 1000 | N#CCN1CC[C@@H](Nc2ncc(C(N)=O)c(Nc3cccc(-n4nccn4)c3)n2)C1 [Example 224] |
| 100 to 1000 | COc1cccc(Nc2nc(N[C@@H](C(N)=O)C3CC3)ncc2C(N)=O)c1 [Example 64, (R)-2-((2-amino-1-cyclopropyl-2-oxoethyl)amino)-4-((3-methoxyphenyl)amino)pyrimidine-5-carboxamide] |
| < 1 | CC[C@@H](Nc1ncc(C(N)=O)c(Nc2cccc(C)c2)n1)C1(N)CC1 [Example 126, (R)-2-(1-(1-aminocyclopropyl)propylamino)-4-(m-tolylamino)pyrimidine-5-carboxamide] |
| 10 to 100 | NC(=O)c1cnc(N[C@@H]2CCOC[C@@H]2N)nc1Nc1csc2ncccc12 [Example 179, 2-((3R,4R)-3-aminotetrahydro-2H-pyran-4-ylamino)-4-(thieno[2,3-b]pyridin-3-ylamino)pyrimidine-5-carboxamide] |
| 100 to 1000 | [N-]=[N+]=N[C@H]1CCCC[C@H]1Nc1ncc(C(N)=O)c(Nc2cccc(-n3nccn3)c2)n1 [Example 8, 4-(3-(2H-1,2,3-triazol-2-yl)phenylamino)-2-((1R,2S)-2-azidocyclohexylamino)pyrimidine-5-carboxamide] |

| IC50 [nM] | SMILES |
| --- | --- |
| 10 to 100 | NC(=O)c1cnc(N[C@@H]2CCC[C@H](F)[C@@H]2N)nc1Nc1cccc(-n2nccn2)c1 [Example 235, 4-(3-(2H-1,2,3-triazol-2-yl)phenylamino)-2-((1R,2R,3S)-2-amino-3-fluorocyclohexylamino)pyrimidine-5-carboxamide] |
| > 1000 | CNC(=O)[C@@H]1C[C@@H](Nc2ncc(C(N)=O)c(Nc3cccc(C)c3)n2)CN1 [Example 218, 2-(((3R,5S)-5-(methylcarbamoyl)pyrrolidin-3-yl)amino)-4-(m-tolylamino)pyrimidine-5-carboxamide] |
| > 1000 | NC(=O)c1cnc(N[C@@H]2CCN(C=O)C2)nc1Nc1cccc(-n2nccn2)c1 [Example 228] |
| 100 to 1000 | NC(=O)c1cnc(N[C@@H]2CCC[C@H](F)[C@@H]2N)nc1Nc1cnc2ccccc2c1 [Example 241, 2-((1R,2R,3S)-2-amino-3-fluorocyclohexylamino)-4-(quinolin-3-ylamino)pyrimidine-5-carboxamide] |
| 10 to 100 | Cc1cccc(Nc2ncc(C(N)=O)c(NC3CCC(N)CC3)n2)c1 (stereo in doubt) [Example 246, 4-(trans-4-aminocyclohexylamino)-2-(m-tolylamino)pyrimidine-5-carboxamide] |
| 100 to 1000 | NC(=O)c1cnc(N[C@@H]2CCCC(F)(F)[C@@H]2N)nc1Nc1cccc(-c2ncccn2)c1 [Example 26, 2-(((1R,2R)-2-amino-3,3-difluorocyclohexyl)amino)-4-((3-(pyrimidin-2-yl)phenyl)amino)pyrimidine-5-carboxamide] |
| 100 to 1000 | NC(=O)c1cnc(N[C@H]2CNC(=O)C2)nc1Nc1cccc(-n2nccn2)c1 [Example 230] |
| 100 to 1000 | Cn1ccc2c(Nc3nc(NC4(C#N)CC4)ncc3C(N)=O)cccc21 [Example 109, 2-(1-cyanocyclopropylamino)-4-(1-methyl-1H-indol-4-ylamino)pyrimidine-5-carboxamide] |
| 100 to 1000 | Cn1cc(C#N)c2c(Nc3nc(N[C@@H]4CCCC[C@@H]4N)ncc3C(N)=O)cccc21 [Example 103, 2-((1R,2S)-2-aminocyclohexylamino)-4-(3-cyano-1-methyl-1H-indol-4-ylamino)pyrimidine-5-carboxamide] |
| 10 to 100 | Cn1ccc2c(Nc3nc(NCC(N)C(C)(F)F)ncc3C(N)=O)cccc21 (stereo not drawn) [Example 104, 2-(2-amino-3,3-difluorobutylamino)-4-(1-methyl-1H-indol-4-ylamino)pyrimidine-5-carboxamide] |
| 1 to 10 | C[C@@H](Nc1ncc(C(N)=O)c(Nc2cccc(-n3cccn3)c2)n1)C1(N)CC1 [Example 143, (R)-4-(3-(1H-pyrazol-1-yl)phenylamino)-2-(1-(1-aminocyclopropyl)ethylamino)pyrimidine-5-carboxamide] |
| 100 to 1000 | CC[C@@H](Nc1ncc(C(N)=O)c(Nc2cccc(OC)c2)n1)C(N)=O [Example 60, (R)-2-((1-amino-1-oxobutan-2-yl)amino)-4-((3-methoxyphenyl)amino)pyrimidine-5-carboxamide] |
| 10 to 100 | Cc1csc(Nc2nc(N[C@H](CC(C)C)C(N)=O)ncc2C(N)=O)c1 [Example 194, (R)-2-(1-amino-4-methyl-1-oxopentan-2-ylamino)-4-(4-methylthiophen-2-ylamino)pyrimidine-5-carboxamide] |
| 10 to 100 | Cn1ncc2c(Nc3nc(N[C@@H]4CCC[C@H](F)[C@@H]4N)ncc3C(N)=O)cccc21 [Example 240, 2-((1R,2R,3S)-2-amino-3-fluorocyclohexylamino)-4-(1-methyl-1H-indazol-4-ylamino)pyrimidine-5-carboxamide] |
| 100 to 1000 | CCC[C@@H](Nc1ncc(C(N)=O)c(Nc2cccc(OC)c2)n1)C(N)=O [Example 61, (R)-2-((1-amino-1-oxopentan-2-yl)amino)-4-((3-methoxyphenyl)amino)pyrimidine-5-carboxamide] |
| 10 to 100 | COc1cncc(Nc2nc(N[C@@H]3CCCC[C@@H]3N)ncc2C(N)=O)c1 [Example 47, 2-(((1R,2S)-2-aminocyclohexyl)amino)-4-((5-methoxypyridin-3-yl)amino)pyrimidine-5-carboxamide] |
| 10 to 100 | CC[C@@H](Nc1ncc(C(N)=O)c(Nc2csc3ncccc23)n1)C(N)=O [Example 55, (R)-2-((1-amino-1-oxobutan-2-yl)amino)-4-(thieno[2,3-b]pyridin-3-ylamino)pyrimidine-5-carboxamide] |
| 10 to 100 | NC(=O)c1cnc(N[C@H](c2ccccc2)C2(N)CC2)nc1Nc1cccc(-c2ncccn2)c1 [Example 150, (R)-2-(1-(1-aminocyclopropyl)(phenyl)methylamino)-4-(3-(pyrimidin-2-yl)phenylamino)pyrimidine-5-carboxamide] |
| 10 to 100 | NC(=O)c1cnc(N[C@@H]2CCCC[C@@H]2N)nc1Nc1cc(-n2nccn2)c(Cl)cc1Cl [Example 24, 2-((1R,2S)-2-aminocyclohexylamino)-4-(2,4-dichloro-5-(2H-1,2,3-triazol-2-yl)phenylamino)pyrimidine-5-carboxamide] |
